Measured values reported in patent US9943504B2, “Arginine methyltransferase inhibitors and uses thereof” (Epizyme, Inc., priority 2013, dated 2018).

System: mono-methyl arginine in RKO cells
Assay: RKO Methylation Assay (In Cell Western)
Type: cell-based
Settings: Homo sapiens, 72 hours, percent activation, read-out: RGG ICW EC30
From the text: RKO adherent cells were purchased from ATCC (American Type Culture Collection), Manassas, Va., USA. DMEM/Glutamax medium, penicillin-streptomycin, heat inactivated fetal bovine serum, 0.05% trypsin and D-PBS were purchased from Life Technologies, Grand Island, N.Y., USA. Odyssey blocking buffer, 800CW goat anti-rabbit IgG (H+L) antibody, and Licor Odyssey infrared scanner were purchased from Licor Biosciences, Lincoln, Nebr., USA. Mono-methyl arginine antibody was purchased from Cell Signaling Technology, Danvers, Mass., USA. Methanol was purchased from VWR, Franklin, Mass., USA. 10% Tween 20 was purchased from KPL, Inc., Gaithersburg, Md., USA. DRAQ5 was purchased from Biostatus Limited, Leicestershire, UK.
RKO adherent cells were maintained in growth medium (DMEM/Glutamax medium supplemented with 10% v/v heat inactivated fetal bovine serum and 100 units/mL penicillin-streptomycin) and cultured at 37° C. under 5% CO2.
Cell Treatment, in Cell Western (ICW) for Detection of Mono-Methyl Arginine and DNA Content.
RKO cells were seeded in assay medium at a concentration of 20,000 cells per mL to a poly-D-lysine coated 384 well culture plate (BD Biosciences 356697) with 50 μL per well. Compound (100 nL) from a 96-well source plate was added directly to 384 well cell plate. Plates were incubated at 37° C., 5% CO2 for 72 hours. After three days of incubation, plates were brought to room temperature outside of the incubator for ten minutes and blotted on paper towels to remove cell media. 50 μL of ice cold 100% methanol was added directly to each well and incubated for 30 min at room temperature. After 30 min, plates were transferred to a Biotek EL406 plate washer and washed 2 times with 100 μL per well of wash buffer (1×PBS). Next 60 μL per well of Odyssey blocking buffer (Odyssey Buffer with 0.1% Tween 20 (v/v)) were added to each plate and incubated 1 hour at room temperature. Blocking buffer was removed and 20 μL per well of primary antibody was added (mono-methyl arginine diluted 1:200 in Odyssey buffer with 0.1% Tween 20 (v/v)) and plates were incubated overnight (16 hours) at 4° C. Plates were washed 5 times with 100 μL per well of wash buffer. Next 20 μL per well of secondary antibody was added (1:200 800CW goat anti-rabbit IgG (H+L) antibody, 1:1000 DRAQ5 (Biostatus limited) in Odyssey buffer with 0.1% Tween 20 (v/v)) and incubated for 1 hour at room temperature. The plates were washed 5 times with 100 μL per well wash buffer then 2 times with 100 μL per well of water. Plates were allowed to dry at room temperature then imaged on the Licor Odyssey machine which measures integrated intensity at 700 nm and 800 nm wavelengths. Both 700 and 800 channels were scanned.
First, the ratio for each well was determined by:
Each plate included fourteen control wells of DMSO only treatment (minimum activation) as well as fourteen control wells for maximum activation treated with 20 μM of a reference compound. The average of the ratio values for each control type was calculated and used to determine the percent activation for each test well in the plate. Reference compound was serially diluted three-fold in DMSO for a total of nine test concentrations, beginning at 20 μM. Percent activation was determined and EC30 curves were generated using triplicate wells per concentration of compound.

## CN(CCN)Cc1n[nH]c2cccc(OCc3ccccc3)c12 [Compound 1]
  EC30: ≤ 3000 nM
